Reference: patent publication US8106055B2, “Substituted amide compounds” (Gruenenthal GmbH, priority 2007, dated 2012)

Each compound was assayed against T1, bradykinin 1 receptor (B1R) of the rat (Rattus norvegicus, UniProt P97583) (assay: Functional investigation on the rat bradykinin 1 receptor (B1R), Ca2+ FLIPR assay in CHO K1 rB1R cells). Settings: B1R antagonism rat; test substance 10 μM; Ca2+ FLIPR, CHO K1 rB1R cells.
T1 construct: expressed in transfected cells; host or cells: CHO K1 cells
T1 sequence (P97583 1-337): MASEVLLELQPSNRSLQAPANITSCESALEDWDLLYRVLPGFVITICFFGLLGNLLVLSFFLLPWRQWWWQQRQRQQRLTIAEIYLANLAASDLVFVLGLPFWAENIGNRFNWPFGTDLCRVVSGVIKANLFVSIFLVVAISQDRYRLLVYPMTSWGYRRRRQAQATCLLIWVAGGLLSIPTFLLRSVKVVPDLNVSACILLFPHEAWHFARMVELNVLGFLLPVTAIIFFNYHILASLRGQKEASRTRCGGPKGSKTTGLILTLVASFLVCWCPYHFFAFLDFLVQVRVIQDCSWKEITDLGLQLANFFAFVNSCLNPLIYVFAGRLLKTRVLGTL
Type: cell-based
Summary of the method: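 Peak Ca2+-dependent fluorescence in B1R-transfected CHO K1 cells measures antagonism of an EC80 agonist challenge given 10-20 min after compound. Agonist is Lys-Des-Arg9-bradykinin for human, Des-Arg9-bradykinin for rat receptor.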

Row | Structure (SMILES) | B1R Ant. r [10 μM] % Inhibition [%]
1 | COc1ccc(S(=O)(=O)N2CCC(OCC(=O)NCCC3CCC(C(c4cccc(F)c4)N(C)C)CC3)C2)cc1OC (centres unmarked) [Example 262] | 36
2 | CN(C)C(c1ccc(Cl)cc1)C1CCC(CCNC(=O)COCCN(C)S(=O)(=O)c2c(Cl)cccc2Cl)CC1 (centres unmarked) [Example 274] | 61
3 | CN(C)C(c1cccc(F)c1)C1CCC(CNC(=O)COCCN(C)S(=O)(=O)c2ccc(F)cc2)CC1 (centres unmarked) [Example 229] | 8
4 | CN(C)C(c1ccc(F)cc1)C1CCC(CNC(=O)COCC2CCCN2S(=O)(=O)c2ccc(Cl)c(Cl)c2)CC1 (centres unmarked) [Example 267] | −13
5 | Cc1ccc(S(=O)(=O)N(C)CCOCC(=O)NCCC2CCC(C(c3cccc(F)c3)N(C)C)CC2)cc1 (centres unmarked) [Example 240] | −14
6 | Cc1ccc(S(=O)(=O)N(C)CCOCC(=O)NC2CCC(C(c3cccc(F)c3)N(C)C)CC2)cc1 (centres unmarked) [Example 226] | 24

Same assay, conditions: CHO-K1, B1R antagonism rat; test substance 10 μM; Ca2+ FLIPR, CHO K1 rB1R cells; read-out: B1R Ant. r [10 μM] % Inhibition

Row | Structure (SMILES) | inhibition at 10 µM [%]
7 | CN(C)C(c1ccccc1)C1CCC(NC(=O)COC2CCN(S(=O)(=O)c3c(Cl)cc(Cl)cc3Cl)C2)CC1 (centres unmarked) [Example 609, N-[4-(dimethylaminophenylmethyl)-cyclohexyl]-2-[1-(2,4,6-trichlorobenzenesulfonyl)-pyrrolidin-3-yloxy]-acetamide] | 32
8 | CN(CCOCC(=O)NC1CCC(C(c2ccccc2)N2CCCC2)CC1)S(=O)(=O)c1c(Cl)cc(Cl)cc1Cl (centres unmarked) [Example 606, 2-{2-[methyl-(2,4,6-trichlorobenzenesulfonyl)-amino]-ethoxy}-N-[4-(phenylpyrrolidin-1-yl-methyl)-cyclohexyl]-acetamide] | 37
